Drawing on patent US8829007B2 (priority 2009, dated 2014), this text covers IC50 and EC50 for 31 compounds.

In general, IC50 refers to the concentration needed to halve the response being measured. Broadly, the EC50 is the concentration at which the effect is half-maximal.

Assay [1] relates to influenza A virus (A/PR/8/34). Kind of assay: microbe, parasite or virus in culture. Format: cell-based.
Assay [2] has as its system A/PR/8/34 influenza virus. Nature of the assay: microbe, parasite or virus in culture. Format: cell-based.
Setting [3] is: Influenza A virus, PR/8, MDCK, MDCK cells infected with A/PR/8/34, survival of infected cells, class symbols, read-out: IC50 (mean all).
Where [4] appears, read: Influenza A virus, PR/8, MDCK, MDCK cells infected with A/PR/8/34, replication of influenza virus (viral RNA, bDNA), class symbols, read-out: EC50 (mean all).
Setting [5] is: Influenza A virus, PR/8, MDCK, mean all, survival of A/PR/8/34 infected MDCK cells (CPE assay), read-out: IC50.
Setting [6] is: Influenza A virus, PR/8, mean all, replication of A/PR/8/34 influenza virus (bDNA assay), read-out: EC50.
[7] abbreviates: Influenza A virus, PR/8, MDCK, MDCK cells infected with A/PR/8/34, cell protection (CPE), read-out: IC50 (mean all).
[8] abbreviates: Influenza A virus, PR/8, MDCK, MDCK cells infected with A/PR/8/34, bDNA viral RNA, read-out: EC50 (mean all).
The mark [9] stands for this setting: Influenza A virus, PR/8, MDCK, mean all, A/PR/8/34 infected MDCK cells, CPE assay, read-out: IC50.
The mark [10] stands for this setting: Influenza A virus, PR/8, MDCK, mean all, A/PR/8/34 influenza virus in MDCK cells, bDNA assay, read-out: EC50.
Where [11] appears, read: Influenza A virus, PR/8, MDCK, bDNA assay, A/PR/8/34 influenza virus replication in MDCK cells, class symbols, read-out: EC50 (mean all).

Where two headings read alike, the source gives them in different places. Where only a bound is given, the exact number is not on record here.

In the case of “1-[(1S,2S)-2-[[2-(5-chloro-1H-pyrrolo[2,3-b]pyridin-3-yl)-5-fluoro-pyrimidin-4-yl]amino]cyclohexyl]-3-methyl-urea [Compound 426]”, the IC50 in assay [1] (read-out: IC50) was less than 5 µM. Besides, in assay [2] (mean all, A/PR/8/34 influenza virus in MDCK cells, bDNA assay, read-out: EC50), the 50% effective concentration (EC50) is less than 5 µM.
As to `O=C(O)[C@H]1CCCC[C@@H]1Nc1nc(-c2c[nH]c3ncc(Cl)cc23)ncc1F` (racemic) [Compound 541, Trans-2-(2-(5-chloro-1H-pyrrolo[2,3-b]pyridin-3-yl)-5-fluoropyrimidin-4-ylamino)cyclohexanecarboxylic acid], the IC50 in assay [1] (setting [3]) was less than 5 µM. Moreover, the EC50 in assay [2] (setting [4]) is less than 5 µM.
`N[C@@H]1CCCC[C@H]1CNc1nc(-c2c[nH]c3ncc(Cl)cc23)ncc1F` (racemic) [Compound 555, N-((trans-2-aminocyclohexyl)methyl)-2-(5-chloro-1H-pyrrolo[2,3-b]pyridin-3-yl)-5-fluoropyrimidin-4-amine]: in assay [1] (setting [3]), the 50% inhibitory concentration (IC50) was greater than 10 µM. In addition, in assay [2] (setting [4]), the 50% effective concentration (EC50) is less than 5 µM.
On to `O=C(O)[C@H]1[C@@H]2CC[C@@H](C2)[C@@H]1Nc1nc(-c2c[nH]c3ncc(Cl)cc23)ncc1F` (racemic) [Compound 946], for which, in assay [1] (setting [5]), the concentration for half-maximal inhibition (IC50) is less than 5 µM. The concentration for a half-maximal effect (EC50) in assay [2] (setting [6]) was less than 5 µM.
As to `O=C(O)[C@H]1C(Nc2nc(-c3c[nH]c4ncc(Cl)cc34)ncc2F)[C@H]2CC[C@@H]1C2` (mixture of isomers) [Compound 947], the half-maximal inhibitory concentration (IC50) in assay [1] (setting [5]) was less than 5 µM. Moreover, the EC50 in assay [2] (setting [6]) is less than 5 µM.
As to `O[C@@H]1CCCC[C@H]1Nc1nc(-c2c[nH]c3ncccc23)ncc1F` (relative stereo) [Compound 207, Trans-2-[[5-fluoro-2-(1H-pyrrolo[2,3-b]pyridin-3-yl)pyrimidin-4-yl]amino]cyclohexanol], the 50% inhibitory concentration (IC50) in assay [1] (setting [7]) is less than 5 µM. Also, the concentration for a half-maximal effect (EC50) in assay [2] (setting [8]) was less than 5 µM.
As for `O[C@@H]1CCCC[C@@H]1Nc1nc(-c2c[nH]c3ncccc23)ncc1F` (relative stereo) [Compound 277, Cis-2-[[5-fluoro-2-(1H-pyrrolo[2,3-b]pyridin-3-yl)pyrimidin-4-yl]amino]cyclohexanol], in assay [1] (setting [7]), the IC50 was less than 5 µM. Besides, the EC50 in assay [2] (setting [8]) is less than 5 µM.
`CC(=O)N[C@H]1CCC[C@@H](Nc2nc(-c3c[nH]c4ncc(Cl)cc34)ncc2F)C1` (relative stereo) [Compound 452, N-[cis-3-[[2-(5-chloro-1H-pyrrolo[2,3-b]pyridin-3-yl)-5-fluoropyrimidin-4-yl]amino]cyclohexyl]acetamide]: in assay [1] (setting [9]), the IC50 is less than 5 µM. Moreover, in assay [2] (setting [10]), the concentration giving a half-maximal response (EC50) was less than 5 µM.
`CNC(=O)N[C@H]1CCC[C@@H](Nc2nc(-c3c[nH]c4ncc(Cl)cc34)ncc2F)C1` (relative stereo) [Compound 455, 1-[cis-3-[[2-(5-chloro-1H-pyrrolo[2,3-b]pyridin-3-yl)-5-fluoro-pyrimidin-4-yl]amino]cyclohexyl]-3-methyl-urea]: in assay [1] (setting [9]), the IC50 is less than 5 µM. Also, in assay [2] (setting [10]), the EC50 is less than 5 µM.
Consider `CN(C)C(=O)N[C@H]1CCC[C@@H](Nc2nc(-c3c[nH]c4ncc(Cl)cc34)ncc2F)C1` (relative stereo) [Compound 456, 3-[cis-3-[[2-(5-chloro-1H-pyrrolo[2,3-b]pyridin-3-yl)-5-fluoro-pyrimidin-4-yl]amino]cyclohexyl]-1,1-dimethyl-urea], for which the IC50 in assay [1] (setting [9]) is less than 5 µM. For the same compound, the 50% effective concentration (EC50) in assay [2] (setting [10]) is less than 5 µM.
For `CC(C)OCC(O)CN1CCCC(Nc2nc(-c3c[nH]c4ncc(Cl)cc34)ncc2F)C1` [Compound 551, 1-((S)-3-((2-(5-chloro-1H-pyrrolo[2,3-b]pyridin-3-yl)-5-fluoropyrimidin-4-ylamino)piperidin-1-yl)-3-isopropoxypropan-2-ol], in assay [2] (setting [4]), the EC50 was less than 5 µM.
The same measure, in the same setting: the value for `COC1CCC[C@H](Nc2nc(-c3c[nH]c4ncc(Cl)cc34)ncc2F)C1` (stereo partly drawn) [Compound 552, 2-(5-chloro-1H-pyrrolo[2,3-b]pyridin-3-yl)-5-fluoro-N-((1S)-3-methoxycyclohexyl)pyrimidin-4-amine] was less than 5 µM; that for `CC(C(=O)O)N1CCCC(Nc2nc(-c3c[nH]c4ncc(Cl)cc34)ncc2F)C1` [Compound 573, 2-((S)-3-((2-(5-chloro-1H-pyrrolo[2,3-b]pyridin-3-yl)-5-fluoropyrimidin-4-ylamino)piperidin-1-yl)propanoic acid] was less than 5 µM.
Same read-out and setting: the same measure for `COCCOC(=O)[C@H]1CCCC[C@@H]1Nc1nc(-c2c[nH]c3ncc(Cl)cc23)ncc1F` [Compound 574, (1S,2S)-2-methoxyethyl 2-(2-(5-chloro-1H-pyrrolo[2,3-b]pyridin-3-yl)-5-fluoropyrimidin-4-ylamino)cyclohexanecarboxylate]: less than 5 µM; for `COC(=O)[C@H]1CCCC[C@@H]1Nc1nc(-c2c[nH]c3ncc(Cl)cc23)ncc1F` [Compound 575, (1S,2S)-methyl 2-(2-(5-chloro-1H-pyrrolo[2,3-b]pyridin-3-yl)-5-fluoropyrimidin-4-ylamino)cyclohexanecarboxylate]: less than 5 µM.
With `CC(=O)N[C@@H]1CCC[C@H](Nc2nc(-c3c[nH]c4ncc(Cl)cc34)ncc2F)C1` [Compound 576, N-[(1R,3S)-3-[[2-(5-chloro-1H-pyrrolo[2,3-b]pyridin-3-yl)-5-fluoro-pyrimidin-4-yl]amino]cyclohexyl]acetamide], the EC50 in assay [2] (setting [4]) was less than 5 µM.
On to `O=C(O)CN1CCC[C@H](Nc2nc(-c3c[nH]c4ncc(Cl)cc34)ncc2F)C1` [Compound 577], for which the concentration giving a half-maximal response (EC50) in assay [2] (setting [4]) was less than 5 µM.
Still for that read-out and setting: the same measure for `O=C(O)[C@H]1CCCC[C@H]1Nc1nc(-c2c[nH]c3ncc(Cl)cc23)ncc1F` [Compound 579, (1S,2R)-2-(2-(5-chloro-1H-pyrrolo[2,3-b]pyridin-3-yl)-5-fluoropyrimidin-4-ylamino)cyclohexanecarboxylic acid]: less than 5 µM.
As to `CC1(O)CCCCCC1Nc1nc(-c2c[nH]c3ncc(Cl)cc23)ncc1F` (centres unmarked) [Compound 581], in assay [2] (MDCK cells infected with A/PR/8/34, replication of influenza virus (viral RNA, bDNA), class symbols, read-out: EC50 (mean all)), the EC50 is less than 5 µM.
In the case of `CC(C(N)=O)N1CCCC(Nc2nc(-c3c[nH]c4ncc(Cl)cc34)ncc2F)C1` [Compound 583, 2-((S)-3-((2-(5-chloro-1H-pyrrolo[2,3-b]pyridin-3-yl)-5-fluoropyrimidin-4-ylamino)piperidin-1-yl)propanamide], the half-maximal effective concentration (EC50) in assay [2] (setting [4]) was less than 5 µM.
Same read-out and setting: the same measure for `COCCC(=O)N1CCC(F)(F)CC1CNc1nc(-c2c[nH]c3ncc(Cl)cc23)ncc1F` (centres unmarked) [Compound 584, 1-(2-((2-(5-chloro-1H-pyrrolo[2,3-b]pyridin-3-yl)-5-fluoropyrimidin-4-ylamino)methyl)-4,4-difluoropiperidin-1-yl)-3-methoxypropan-1-one]: less than 5 µM; for `Fc1cnc(-c2c[nH]c3ncc(Cl)cc23)nc1N[C@H]1CCCN(Cc2ncc[nH]2)C1` [Compound 589, (S)—N-(1-((1H-imidazol-2-yl)methyl)piperidin-3-yl)-2-(5-chloro-1H-pyrrolo[2,3-b]pyridin-3-yl)-5-fluoropyrimidin-4-amine]: less than 5 µM.
As for `CC(C)(C(=O)O)N1CCC[C@H](Nc2nc(-c3c[nH]c4ncc(Cl)cc34)ncc2F)C1` [Compound 590], the 50% effective concentration (EC50) in assay [2] (setting [4]) is greater than 3.3 µM.
With `COCCOC(=O)N[C@@H]1CCC[C@H](Nc2nc(-c3c[nH]c4ncc(Cl)cc34)ncc2F)C1` [Compound 592, 2-methoxyethyl N-[(1R,3S)-3-[[2-(5-chloro-1H-pyrrolo[2,3-b]pyridin-3-yl)-5-fluoro-pyrimidin-4-yl]amino]cyclohexyl]carbamate], the EC50 in assay [2] (setting [4]) is less than 5 µM.
Same read-out and setting: the value for `NC(=O)CN[C@@H]1CCC[C@H](Nc2nc(-c3c[nH]c4ncc(Cl)cc34)ncc2F)C1` [Compound 593] was less than 5 µM.
As for `N#CCCCN1CCC[C@@H](CNc2nc(-c3c[nH]c4ncc(Cl)cc34)ncc2F)C1` [Compound 666, (S)-4-(3-((2-(5-chloro-1H-pyrrolo[2,3-b]pyridin-3-yl)-5-fluoropyrimidin-4-ylamino)methyl)piperidin-1-yl)butanenitrile], the concentration giving a half-maximal response (EC50) in assay [2] (setting [11]) was greater than 10 µM.
Take `N#CCCN1CCC[C@@H](CNc2nc(-c3c[nH]c4ncc(Cl)cc34)ncc2F)C1` [Compound 667, (S)-3-(3-((2-(5-chloro-1H-pyrrolo[2,3-b]pyridin-3-yl)-5-fluoropyrimidin-4-ylamino)methyl)piperidin-1-yl)propanenitrile]: the EC50 in assay [2] (setting [11]) is greater than 10 µM.
Still for that read-out and setting: the same measure for `Fc1cnc(-c2c[nH]c3ncc(Cl)cc23)nc1N[C@H]1CCCN(CC(F)(F)F)C1` [Compound 668, (S)-2-(5-chloro-1H-pyrrolo[2,3-b]pyridin-3-yl)-5-fluoro-N-(1-(2,2,2-trifluoroethyl)piperidin-3-yl)pyrimidin-4-amine]: less than 5 µM.
For `NC(=O)[C@@H]1CCC[C@H](Nc2nc(-c3c[nH]c4ncc(Cl)cc34)ncc2F)C1` [Compound 847], the half-maximal effective concentration (EC50) in assay [2] (mean all, A/PR/8/34 influenza virus replication, bDNA, read-out: EC50) was less than 5 µM.
Take `C[C@@]1(C(N)=O)CCC[C@H](Nc2nc(-c3c[nH]c4ncc(Cl)cc34)ncc2F)C1` [Compound 924, (1R,3S)-3-[[2-(5-chloro-1H-pyrrolo[2,3-b]pyridin-3-yl)-5-fluoro-pyrimidin-4-yl]amino]-1-methyl-cyclohexanecarboxamide]: the EC50 in assay [2] (setting [6]) was less than 5 µM.
The same measure, in the same setting: the same measure for `C[C@@]1(NC(=O)N2CCCC2)CCCC(Nc2nc(-c3c[nH]c4ncc(Cl)cc34)ncc2F)C1` (some centres unmarked) [Compound 926]: less than 5 µM.
